In ChEMBL document CHEMBL1201862, “PubChem BioAssay data set” (2004):
The source made the active and inactive calls.

Experiments:
Assay type in all cases: functional
[1] = biological target: Dual specificity mitogen-activated protein kinase kinase 2 (Homo sapiens, UniProt P36507); test: Navigating the Kinome. Panel member name: MAP2K2
[2] = biological target: T1, Serine/threonine-protein kinase D3 (Homo sapiens, UniProt O94806);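 also: determined within a kinase panel screen, with PRKCN as the panel member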
T1 sequence (O94806 whole entry): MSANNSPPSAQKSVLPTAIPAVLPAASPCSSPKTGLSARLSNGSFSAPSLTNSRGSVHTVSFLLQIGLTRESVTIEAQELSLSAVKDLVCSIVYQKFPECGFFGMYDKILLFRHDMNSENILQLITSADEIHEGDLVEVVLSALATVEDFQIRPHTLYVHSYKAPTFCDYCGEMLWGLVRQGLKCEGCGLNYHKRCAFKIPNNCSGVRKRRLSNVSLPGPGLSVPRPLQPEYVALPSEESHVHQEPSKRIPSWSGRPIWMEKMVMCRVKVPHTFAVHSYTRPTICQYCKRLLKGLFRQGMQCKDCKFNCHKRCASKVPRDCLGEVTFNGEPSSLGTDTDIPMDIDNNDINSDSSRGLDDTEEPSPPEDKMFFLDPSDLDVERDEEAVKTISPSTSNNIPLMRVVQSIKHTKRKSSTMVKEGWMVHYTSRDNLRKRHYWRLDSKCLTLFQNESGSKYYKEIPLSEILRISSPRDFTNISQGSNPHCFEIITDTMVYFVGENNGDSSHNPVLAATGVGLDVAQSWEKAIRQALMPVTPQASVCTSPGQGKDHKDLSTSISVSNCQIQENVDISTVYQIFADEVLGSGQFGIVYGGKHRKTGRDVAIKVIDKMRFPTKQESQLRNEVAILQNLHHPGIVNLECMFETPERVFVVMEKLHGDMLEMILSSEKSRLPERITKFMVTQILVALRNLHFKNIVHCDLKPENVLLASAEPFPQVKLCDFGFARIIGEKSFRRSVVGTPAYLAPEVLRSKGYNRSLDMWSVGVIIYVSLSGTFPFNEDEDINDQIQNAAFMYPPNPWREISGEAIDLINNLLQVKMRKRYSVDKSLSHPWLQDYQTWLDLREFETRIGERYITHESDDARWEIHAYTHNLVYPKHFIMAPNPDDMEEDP

[3] = biological target: Serine/threonine-protein kinase pim-1 (Homo sapiens, UniProt P11309)
Focal adhesion kinase 1 = Focal adhesion kinase 1 (Homo sapiens, UniProt Q05397);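 also: measured as one member of a kinome panel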
[4] = biological target: Vascular endothelial growth factor receptor 1 (Homo sapiens, UniProt P17948);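 also: measured within a kinome-wide profiling panel, FLT1 as the panel member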
[5] = biological target: BDNF/NT-3 growth factors receptor (Homo sapiens, UniProt Q16620);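 also: NTRK2 measured as one member of a broad kinome-wide kinase profiling panel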
[6] = biological target: Tyrosine-protein kinase BTK (Homo sapiens, UniProt Q06187)
[7] = biological target: T2, cAMP-dependent protein kinase catalytic subunit PRKX (Homo sapiens, UniProt P51817)
T2 sequence (P51817 whole entry): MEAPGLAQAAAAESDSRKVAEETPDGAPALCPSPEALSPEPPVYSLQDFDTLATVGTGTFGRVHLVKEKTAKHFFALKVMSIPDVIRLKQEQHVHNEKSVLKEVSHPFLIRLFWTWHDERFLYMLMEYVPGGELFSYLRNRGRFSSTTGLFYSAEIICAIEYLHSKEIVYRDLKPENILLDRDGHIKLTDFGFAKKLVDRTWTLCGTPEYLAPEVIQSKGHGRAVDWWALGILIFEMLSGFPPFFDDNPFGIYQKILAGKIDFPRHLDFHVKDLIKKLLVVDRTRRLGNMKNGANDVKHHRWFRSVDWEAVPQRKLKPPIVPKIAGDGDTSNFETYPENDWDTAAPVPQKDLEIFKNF

[8] = biological target: T3, Serine/threonine-protein kinase Chk1 (Homo sapiens, UniProt O14757);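 also: measured as one member of a kinome-wide kinase profiling panel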
T3 sequence (O14757 whole entry): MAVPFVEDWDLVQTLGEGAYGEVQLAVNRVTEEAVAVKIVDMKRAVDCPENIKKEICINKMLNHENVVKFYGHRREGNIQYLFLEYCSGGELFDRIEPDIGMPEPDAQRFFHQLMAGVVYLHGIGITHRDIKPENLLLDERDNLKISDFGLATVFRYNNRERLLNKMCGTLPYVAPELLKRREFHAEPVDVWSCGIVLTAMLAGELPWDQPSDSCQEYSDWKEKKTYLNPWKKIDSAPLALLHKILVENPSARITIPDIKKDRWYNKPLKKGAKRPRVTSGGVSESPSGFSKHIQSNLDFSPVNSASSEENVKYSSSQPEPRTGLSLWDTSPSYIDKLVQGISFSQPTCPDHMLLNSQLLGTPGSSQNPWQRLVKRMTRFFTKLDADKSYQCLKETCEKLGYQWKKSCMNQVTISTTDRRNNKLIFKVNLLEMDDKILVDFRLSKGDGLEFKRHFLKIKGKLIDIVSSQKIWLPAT

[9] = biological target: 5'-AMP-activated protein kinase catalytic subunit alpha-1 (Homo sapiens, UniProt Q13131)
[10] = biological target: Leukocyte tyrosine kinase receptor (Homo sapiens, UniProt P29376); test: Navigating the Kinome. Panel member name: LTK
Aurora kinase B = Aurora kinase B (Homo sapiens, UniProt Q96GD4)

Measured: Ki

Aurora kinase B, sequence (Q96GD4 whole entry): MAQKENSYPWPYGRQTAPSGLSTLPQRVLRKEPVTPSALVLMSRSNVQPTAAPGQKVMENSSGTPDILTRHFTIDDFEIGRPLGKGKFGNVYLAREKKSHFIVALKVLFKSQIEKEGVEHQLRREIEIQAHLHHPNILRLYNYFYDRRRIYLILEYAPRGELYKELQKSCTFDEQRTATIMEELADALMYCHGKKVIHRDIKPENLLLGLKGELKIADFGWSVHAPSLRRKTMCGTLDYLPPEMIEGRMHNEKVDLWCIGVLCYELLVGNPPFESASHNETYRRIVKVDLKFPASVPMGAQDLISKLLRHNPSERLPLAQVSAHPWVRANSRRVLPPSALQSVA
Serine/threonine-protein kinase pim-1, sequence (P11309 whole entry): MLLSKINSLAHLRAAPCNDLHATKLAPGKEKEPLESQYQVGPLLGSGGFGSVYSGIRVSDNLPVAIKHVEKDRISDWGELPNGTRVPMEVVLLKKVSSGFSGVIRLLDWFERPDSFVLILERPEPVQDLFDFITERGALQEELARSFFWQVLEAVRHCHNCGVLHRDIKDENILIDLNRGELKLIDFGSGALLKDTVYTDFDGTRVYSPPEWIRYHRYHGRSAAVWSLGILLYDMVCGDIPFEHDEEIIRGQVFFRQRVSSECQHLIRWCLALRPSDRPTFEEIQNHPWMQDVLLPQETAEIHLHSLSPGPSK
Vascular endothelial growth factor receptor 1, sequence (P17948 whole entry): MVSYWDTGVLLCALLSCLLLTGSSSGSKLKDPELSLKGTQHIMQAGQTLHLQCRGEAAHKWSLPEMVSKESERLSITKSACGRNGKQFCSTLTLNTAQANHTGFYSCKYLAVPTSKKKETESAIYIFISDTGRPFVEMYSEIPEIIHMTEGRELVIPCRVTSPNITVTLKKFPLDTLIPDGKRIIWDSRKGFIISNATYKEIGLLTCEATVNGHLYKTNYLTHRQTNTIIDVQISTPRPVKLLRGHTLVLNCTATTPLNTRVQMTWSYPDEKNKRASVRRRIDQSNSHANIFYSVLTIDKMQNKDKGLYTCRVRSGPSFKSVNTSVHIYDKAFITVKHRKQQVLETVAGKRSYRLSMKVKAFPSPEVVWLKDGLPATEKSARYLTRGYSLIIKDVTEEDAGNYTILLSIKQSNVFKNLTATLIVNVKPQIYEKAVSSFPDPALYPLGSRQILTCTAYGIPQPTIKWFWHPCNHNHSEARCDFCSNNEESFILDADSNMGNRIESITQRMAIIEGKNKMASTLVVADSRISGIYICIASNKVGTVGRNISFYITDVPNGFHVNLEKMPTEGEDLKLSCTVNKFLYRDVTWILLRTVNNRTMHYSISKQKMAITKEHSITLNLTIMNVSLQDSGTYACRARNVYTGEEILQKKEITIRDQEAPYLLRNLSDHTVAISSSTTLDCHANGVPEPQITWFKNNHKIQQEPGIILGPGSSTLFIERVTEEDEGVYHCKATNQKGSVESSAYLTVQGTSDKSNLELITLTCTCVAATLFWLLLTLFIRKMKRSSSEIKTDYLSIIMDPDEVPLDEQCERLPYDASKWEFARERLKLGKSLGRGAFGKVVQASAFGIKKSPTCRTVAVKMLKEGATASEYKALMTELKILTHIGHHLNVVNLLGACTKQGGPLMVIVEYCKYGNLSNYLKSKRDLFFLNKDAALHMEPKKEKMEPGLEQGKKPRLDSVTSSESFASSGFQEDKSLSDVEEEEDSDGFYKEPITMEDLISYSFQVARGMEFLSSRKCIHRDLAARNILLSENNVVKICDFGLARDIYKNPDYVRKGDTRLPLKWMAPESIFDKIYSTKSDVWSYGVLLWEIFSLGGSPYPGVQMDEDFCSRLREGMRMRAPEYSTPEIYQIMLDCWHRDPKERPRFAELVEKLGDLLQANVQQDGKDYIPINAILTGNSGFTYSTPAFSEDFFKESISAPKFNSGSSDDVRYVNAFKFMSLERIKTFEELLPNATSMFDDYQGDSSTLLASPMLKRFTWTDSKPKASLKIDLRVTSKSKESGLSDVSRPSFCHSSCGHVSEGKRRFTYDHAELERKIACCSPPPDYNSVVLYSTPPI
Dual specificity mitogen-activated protein kinase kinase 2, sequence (P36507 whole entry): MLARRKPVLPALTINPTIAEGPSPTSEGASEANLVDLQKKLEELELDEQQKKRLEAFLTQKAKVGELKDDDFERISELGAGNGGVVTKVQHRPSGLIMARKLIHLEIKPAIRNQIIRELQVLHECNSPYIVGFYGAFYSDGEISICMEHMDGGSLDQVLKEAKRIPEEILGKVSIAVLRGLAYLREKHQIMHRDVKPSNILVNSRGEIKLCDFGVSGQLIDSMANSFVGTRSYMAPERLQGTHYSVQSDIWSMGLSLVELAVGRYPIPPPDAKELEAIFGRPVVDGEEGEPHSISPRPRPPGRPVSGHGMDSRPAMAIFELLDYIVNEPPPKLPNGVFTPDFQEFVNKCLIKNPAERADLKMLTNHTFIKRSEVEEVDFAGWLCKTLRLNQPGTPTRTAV
Tyrosine-protein kinase BTK, sequence (Q06187 whole entry): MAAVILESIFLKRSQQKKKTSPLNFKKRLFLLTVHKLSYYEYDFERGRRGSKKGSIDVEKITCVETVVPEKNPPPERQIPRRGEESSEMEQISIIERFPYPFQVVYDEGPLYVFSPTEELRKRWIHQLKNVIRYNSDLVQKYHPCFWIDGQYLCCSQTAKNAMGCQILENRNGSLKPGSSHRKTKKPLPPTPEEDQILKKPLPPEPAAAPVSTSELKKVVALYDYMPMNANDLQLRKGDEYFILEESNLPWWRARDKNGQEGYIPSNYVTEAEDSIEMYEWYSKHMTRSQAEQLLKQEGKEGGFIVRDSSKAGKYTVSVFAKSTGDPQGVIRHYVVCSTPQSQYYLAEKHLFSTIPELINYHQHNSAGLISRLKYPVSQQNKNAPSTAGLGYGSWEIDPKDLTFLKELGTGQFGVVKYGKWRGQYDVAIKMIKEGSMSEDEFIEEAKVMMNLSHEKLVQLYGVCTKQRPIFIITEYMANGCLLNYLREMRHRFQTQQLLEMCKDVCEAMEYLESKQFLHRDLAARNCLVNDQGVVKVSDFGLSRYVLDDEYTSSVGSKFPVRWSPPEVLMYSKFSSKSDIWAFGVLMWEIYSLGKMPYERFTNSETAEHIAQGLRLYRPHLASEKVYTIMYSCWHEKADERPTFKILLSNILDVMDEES
BDNF/NT-3 growth factors receptor, sequence (Q16620 whole entry): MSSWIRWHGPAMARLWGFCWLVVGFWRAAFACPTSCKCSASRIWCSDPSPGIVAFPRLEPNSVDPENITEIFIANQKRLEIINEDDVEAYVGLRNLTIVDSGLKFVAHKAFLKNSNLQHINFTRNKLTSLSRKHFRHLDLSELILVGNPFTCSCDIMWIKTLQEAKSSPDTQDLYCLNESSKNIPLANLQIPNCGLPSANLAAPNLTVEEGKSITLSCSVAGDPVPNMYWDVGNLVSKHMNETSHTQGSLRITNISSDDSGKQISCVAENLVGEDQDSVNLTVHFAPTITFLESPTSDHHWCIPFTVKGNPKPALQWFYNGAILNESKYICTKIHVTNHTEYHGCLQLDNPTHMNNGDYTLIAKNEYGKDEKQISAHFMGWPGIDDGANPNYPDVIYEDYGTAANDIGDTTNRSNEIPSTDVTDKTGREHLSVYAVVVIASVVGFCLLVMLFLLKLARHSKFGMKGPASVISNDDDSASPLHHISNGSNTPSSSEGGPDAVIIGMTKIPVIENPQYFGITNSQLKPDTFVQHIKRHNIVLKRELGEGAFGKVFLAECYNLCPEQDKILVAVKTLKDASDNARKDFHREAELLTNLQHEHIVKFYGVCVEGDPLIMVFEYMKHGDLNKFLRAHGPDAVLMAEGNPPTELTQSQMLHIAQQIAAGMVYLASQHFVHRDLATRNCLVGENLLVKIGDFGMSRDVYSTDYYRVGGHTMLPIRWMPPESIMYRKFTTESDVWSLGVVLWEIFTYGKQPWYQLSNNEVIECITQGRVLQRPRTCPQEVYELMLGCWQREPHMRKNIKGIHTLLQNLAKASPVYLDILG
5'-AMP-activated protein kinase catalytic subunit alpha-1, sequence (Q13131 whole entry): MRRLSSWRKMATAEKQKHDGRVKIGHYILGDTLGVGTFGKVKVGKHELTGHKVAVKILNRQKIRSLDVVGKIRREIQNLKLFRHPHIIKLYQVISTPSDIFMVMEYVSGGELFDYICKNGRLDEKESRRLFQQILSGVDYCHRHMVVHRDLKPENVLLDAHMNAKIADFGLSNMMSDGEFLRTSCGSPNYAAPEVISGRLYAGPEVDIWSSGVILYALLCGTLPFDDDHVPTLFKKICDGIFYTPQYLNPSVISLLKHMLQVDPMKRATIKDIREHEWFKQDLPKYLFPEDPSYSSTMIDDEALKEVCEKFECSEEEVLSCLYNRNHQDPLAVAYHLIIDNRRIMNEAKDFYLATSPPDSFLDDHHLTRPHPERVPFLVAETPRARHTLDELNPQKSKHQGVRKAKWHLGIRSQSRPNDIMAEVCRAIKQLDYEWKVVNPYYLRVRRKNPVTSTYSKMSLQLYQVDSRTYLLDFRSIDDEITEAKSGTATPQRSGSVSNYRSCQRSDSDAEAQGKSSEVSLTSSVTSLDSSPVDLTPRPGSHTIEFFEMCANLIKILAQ

COc1ccc(C2=NNc3cccc4c(OC)ccc2c34)cc1OC
inactive: [1] > 3980 nM | [3] > 6310 nM | [5] > 3980 nM | Aurora kinase B > 3980 nM
active: [2] 398 nM | Focal adhesion kinase 1 794 nM | [4] 316 nM | [6] 631 nM | [7] 398 nM | [8] 31.6 nM | [9] 794 nM | [10] 25.1 nM

Cc1ccc(C)c(NC(=O)c2cc(-c3ccco3)nc3ccccc23)c1
active: [1] 3160 nM | [2] 1580 nM | [3] 1260 nM | Focal adhesion kinase 1 3160 nM | [4] 3160 nM | [6] 3980 nM | [7] 1000 nM | [8] 316 nM | [9] 2000 nM | [10] 1000 nM | Aurora kinase B 3160 nM
inactive: [5] > 3980 nM

CN1CCC(c2c(O)cc(O)c3c(=O)cc(-c4ccccc4Cl)oc23)C(O)C1 (stereo unspecified)
active: [2] 316 nM | [3] 794 nM | [10] 631 nM
inactive: [1] > 3980 nM | Focal adhesion kinase 1 > 3980 nM | [4] > 2000 nM | [5] > 3980 nM | [6] > 3980 nM | [7] > 3160 nM | [8] > 6310 nM | [9] > 2510 nM | Aurora kinase B > 5010 nM
